# From publication PMC9847679, “The anti-breast cancer stem cell properties of gold(I)-non-steroidal anti-inflammatory drug complexes” (Chemical Science, 2022)
# Where two headings read alike, the source gives them in different places.
# Tests used:
# HMLER-shEcad cells [1] = system: HMLER-shEcad cells; set-up: method as in PMID 26806362, PMID 31209956, PMID 28932846; conditions: cited from earlier work
# HMLER cells [2] = system: HMLER cells; set-up: method as in PMID 26806362, PMID 31209956, PMID 28932846; conditions: cited from earlier work
# [3] = system: HMLER-shEcad mammospheres; set-up: method as in PMID 26806362, PMID 31209956, PMID 28932846; conditions: read-out: Mammosphere IC50; cited from earlier work
# HMLER cells [4] = assay: Monolayer cytotoxicity (MTT assay), HMLER cells; type: cell-based, human; conditions: 72 h incubation, MTT
# From the text: (§1) Cell Lines and Cell Culture Conditions. The human mammary epithelial HMLER and HMLER-shEcad cell lines were kindly donated by Prof. R. A. Weinberg (Whitehead Institute, MIT). The human epithelial breast MCF10A, breast adenocarcinoma MDA-MB-231 and MDA-MB-468, murine epithelial breast 4T1, and embryonic kidney HEK 293 cell lines were acquired from American Type Culture Collection (ATCC, Manassas, VA, USA).
# (§2) HMLER, HMLER-shEcad, and MCF10A cells were maintained in Mammary Epithelial Cell Growth Medium (MEGM) with supplements and growth factors (BPE, hydrocortisone, hEGF, insulin, and gentamicin/amphotericin-B). MDA-MB-231, MDA-MB-468, 4T1, and HEK 293 cells were maintained in Dulbecco's Modified Eagle's Medium (DMEM) supplemented with fetal bovine serum (10 %) and penicillin/streptomycin (1 %). The cells were grown at 310 K in a humidified atmosphere containing 5% CO2.
# (§3) Monolayer Cytotoxicity Studies. Exponentially growing cells were seeded at a density of approximately 5 × 10^3 cells per well in 96-well flat-bottomed microplates and allowed to attach for 24 h prior to addition of compounds. Various concentrations of the test compounds (0.0004-100 μM) were added and incubated for 72 h at 37 °C (total volume 200 μl). Stock solutions of the compounds were prepared as 10 mM DMSO solutions and diluted using cell […]
# (§4) media. The final concentration of DMSO in each well was ≤1 %. After 72 h, 20 μl of MTT (4 mg mL-1 in PBS) was added to each well and the plates incubated for an additional 4 h at 37 °C. The media/MTT mixture was eliminated and DMSO (100 μl per well) was added to dissolve the formazan precipitates. The optical density was measured at 550 nm using a 96-well multiscanner autoreader. Absorbance values were normalised to (DMSO-containing) control wells and plotted as concentration of test compound versus % cell viability. IC50 values were interpolated from the resulting dose dependent curves. The reported IC50 values are the average of three independent experiments (n = 18). […]
# (§5) After incubation for 16 […]
# (§6) h, the fluorescence of the solutions was read at 590 nm (λex = 560 nm). Viable mammospheres reduce the amount of the oxidised TOX8 form (blue) and concurrently increase the amount of the fluorescent TOX8 intermediate (red), indicating the degree of mammosphere cytotoxicity caused by the test compound. […]
# (§7) Cellular Uptake. To measure the cellular uptake of 1-3 about 1 million HMLER-shEcad cells were treated with 1-3 (0.25 μM) at 37 °C for 24 h. After incubation, the media was removed, the cells were washed with PBS (2 mL × 3) and harvested. The number of cells was counted at this stage, using a haemocytometer. This mitigates any cell death induced by 1-3 at the administered concentration and experimental cell loss. The cellular pellets were dissolved in 65% HNO3 (250 µL) overnight. A cellular pellet of HMLER-shEcad cells treated with 1 was also used to determine the gold content in the nuclear, cytoplasmic and membrane fractions. The Thermo Scientific NE-PER Nuclear and Cytoplasmic Extraction Kit was used to extract and separate the nuclear, cytoplasmic and membrane fractions. The fractions were dissolved in 65% HNO3 (250 µL final volume) overnight. All samples were diluted 17-fold with water and analysed using inductively coupled plasma mass spectrometry (ICP-MS, Thermo Scientific ICAP-Qc quadrupole ICP mass spectrometer). Gold levels are expressed as mass of Au (ng) per million cells. Results are presented as the mean of four determinations for each data point.
# (§8) Intracellular ROS Assay. […]
# HMLER-shEcad cells [5] = assay: Monolayer cytotoxicity (MTT assay), HMLER-shEcad cells; type: cell-based, human; conditions: 72 h incubation, MTT
# From the text: as §1, §2, §3, §4, §5, §6, §7, §8
# [6] = system: HMLER-shEcad mammospheres; assay: Mammosphere viability assay (TOX8); type: cell-based, human; conditions: 5 days incubation
# Protocol: Tumorsphere Formation and Viability Assay.
# in ultralow-attachment 96-well plates (Corning) and incubated in MEGM supplemented with B27 (Invitrogen), 20 ng mL-1 EGF and 4 μg mL-1 heparin (Sigma) for 5 days. […] The viability of the mammospheres was determined by addition of a resazurin-based reagent, TOX8 (Sigma). After incubation for 16 h, the fluorescence of the solutions was read at 590 nm (λex = 560 nm). Viable mammospheres reduce the amount of the oxidised TOX8 form (blue) and concurrently increase the amount of the fluorescent TOX8 intermediate (red), indicating the degree of mammosphere cytotoxicity caused by the test compound. Fluorescence values were normalised to DMSO-containing controls and plotted as concentration of test compound versus % mammospheres viability. IC50 values were interpolated from the resulting dose dependent curves. The reported IC50 values are the average of three independent experiments, each consisting of two replicates per concentration level (overall n = 6).
# MDA-MB-231 cells = assay: Monolayer cytotoxicity (MTT assay), MDA-MB-231 cells; type: cell-based, human; conditions: 72 h incubation
# From the text: as §1, §2, §3
# (§9) media. The final concentration of DMSO in each well was ≤1 %. […] The optical density was measured at 550 nm using a 96-well multiscanner autoreader. Absorbance values were normalised to (DMSO-containing) control wells and plotted as concentration of test compound versus % cell viability. […]
# (§10) h, the fluorescence of the solutions was read at 590 nm (λex = 560 nm). […]
# (§11) Cellular Uptake. […] The number of cells was counted at this stage, using a haemocytometer. […] All samples were diluted 17-fold with water and analysed using inductively coupled plasma mass spectrometry (ICP-MS, Thermo Scientific ICAP-Qc quadrupole ICP mass spectrometer). Gold levels are expressed as mass of Au (ng) per million cells. […]
# MDA-MB-468 cells = assay: Monolayer cytotoxicity (MTT assay), MDA-MB-468 cells; type: cell-based, human; conditions: 72 h incubation
# From the text: as §1, §2, §3, §4
# Cellular Uptake. […]
# [7] = Water-octanol partition coefficient (shake-flask, UV-vis); type: physicochemical; conditions: room temperature 24 h
# Protocol: Measurement of water-octanol partition coefficient (LogP). The LogP values for 1-8 were determined using the shake-flask method and UV-vis spectroscopy. The 1-octanol used in this experiment was pre-saturated with water. An aqueous solution of 1-8 (500 μL, 100 μM) was incubated with 1-octanol (500 μL) in a 1.5 mL tube. The tube was shaken at room temperature for 24 h. The two phases were separated by centrifugation and the 1-8 content in each phase was determined by UV-vis spectroscopy. […]
# 4T1 cells = assay: Monolayer cytotoxicity (MTT assay), 4T1 cells; type: cell-based, murine; conditions: 72 h incubation
# From the text: as §1, §2, §3, §9, §10, §11
smiles,measurement,setting,value
"N.N.[Cl][Pt][Cl] [Cisplatin, cisplatin]",IC50,HMLER-shEcad cells [1],5.65 ± 0.304 µM
same,IC50,HMLER cells [2],2.565 ± 0.021 µM
same,IC50,[3],14 ± 2 µM
"CCCCCOC(=O)Nc1nc(=O)n([C@@H]2O[C@H](C)[C@@H](O)[C@H]2O)cc1F [Capecitabine, capecitabine]",IC50,HMLER cells [4]; Homo sapiens,> 100 µM
same,IC50,HMLER-shEcad cells [5]; Homo sapiens,> 100 µM
same,IC50,"[6]; Homo sapiens, 120 h",> 133 µM
"CC[C@@H](C(=O)[C@@H](C)[C@@H](O)[C@H](C)[C@@H]1O[C@@H]([C@@H](CC)C(=O)O)CC[C@@H]1C)[C@H]1O[C@]2(C=C[C@@H](O)[C@]3(CC[C@@](C)([C@H]4CC[C@](O)(CC)[C@H](C)O4)O3)O2)[C@H](C)C[C@@H]1C [Salinomycin, salinomycin]",IC50,HMLER-shEcad cells [1],4.23 ± 0.35 µM
same,IC50,[3],19 ± 2 µM
O=C([O][Au][PH](c1ccccc1)(c1ccccc1)c1ccccc1)c1cc(-c2ccc(F)cc2F)ccc1O [complex 2],IC50,MDA-MB-231 cells,5.79 ± 0.79 µM
same,IC50,HMLER cells [4],0.221 ± 0.003 µM
same,IC50,MDA-MB-468 cells,7.12 ± 0.1 µM
same,LogP value,[7],1.54 ± 0.44
same,IC50,HMLER-shEcad cells [5],0.138 ± 0.007 µM
same,IC50,4T1 cells,7.25 ± 0.4 µM
same,IC50,[6],8 ± 1 µM
"N.N.O=C([O-])C1(C(=O)[O-])CCC1.[Pt+2] [Carboplatin, carboplatin]",IC50,[3],18 ± 1 µM
"O=c1[nH]cc(F)c(=O)[nH]1 [5-Fluorouracil, 5-fluorouracil, reference compound]",IC50,"[6]; Homo sapiens, 120 h",15 ± 1 µM
COc1ccc2cc([C@H](C)C(=O)[O][Au][PH](c3ccccc3)(c3ccccc3)c3ccccc3)ccc2c1 [complex 3],IC50,MDA-MB-231 cells,7.77 ± 0.41 µM
same,IC50,HMLER cells [4],0.183 ± 0.001 µM
same,IC50,MDA-MB-468 cells,6.48 ± 1.43 µM
same,IC50,HMLER-shEcad cells [5],0.063 ± 0.006 µM
same,IC50,4T1 cells,10.1 ± 0.86 µM
same,IC50,[6],8 ± 1 µM
